Reference: patent publication US8987198B2, “Compositions and methods for treating obesity and diabetes” (The Administrators of the Tulane Educational Fund, priority 2009, dated 2015)

Columns and labels:
[1] = system: Liver X Receptor in LNCaP Cells; assay: Up-regulation of LXR-responsive genes ABCG1/ABCA1 in LNCaP cells; assay type: cell-based; conditions: glyceollin at 5 μM for 48 h
Procedure: LNCaP cells were obtained from the American Type Culture Collection (Manassas, Va.) and maintained in Media A [RPMI 1640 medium with phenol red (Invitrogen, Carlsbad, Calif.), 2 mM L-glutamine (Sigma), 100 U/mL penicillin and 100 μg/mL streptomycin (BioSource International, Camarillo, Calif.) with 10% fetal bovine serum (FBS) (Invitrogen, Carlsbad, Calif.)]. Cells were incubated in the presence of 5% CO2 in air at 37° C.

[2] = system: 3T3-L1 differentiated adipocytes; assay: [3H]2-deoxyglucose uptake assay in 3T3-L1 adipocytes; assay type: cell-based, murine; conditions: for glucose uptake after addition of insulin: 0.3 nM insulin + glyceollin; for glucose uptake after addition of insulin / glucose uptake in the absence of insulin: FIG. 17; for glucose uptake in the absence of insulin: 24 h KRH, then 30 min exposure; for insulin-mediated glucose uptake after pre-incubation with glyceollins: 24 hours pre-incubation, 30 min insulin, FIG. 15
Procedure: Krebs-Ringers-Hepes (KRH) buffer was prepared with 200 mL H2O, 300 μL of 1 M CaCl2, 300 μL of 1.2 M MgSO4, 300 μL of 1 M KH2PO4, 3 mL of 0.14 M KCl, 6 mL of 1 M HEPES in 1.2 M NaHCO3, and 15 mL of 2.6 M NaCl. […] Insulin (MW=5808) stock solution (100 μM) was prepared by dissolving 2.90 mg insulin into 5 mL of 0.01 N HCl. To make working solutions: the stock solution was diluted 1:10 by adding 100 μL stock to 900 μL KRH buffer, giving solution A (10 μM); solution A was diluted by adding 400 μL of solution A to 932 μL KRH buffer, giving solution B (3 μM); solution A was diluted by adding 100 μL of solution A to 900 μL KRH buffer, giving solution C (1 μM); solution B was diluted by adding 100 μL of solution B to 900 μL KRH buffer, giving solution D (300 nM); solution C was diluted by adding 100 μL of solution C to 900 μL KRH buffer, giving solution E (100 nM); solution D was diluted by adding 100 μL of solution D to 900 μL KRH buffer, giving solution F (30 nM); solution E was diluted by adding 100 μL of solution E to 900 μL KRH buffer, giving solution G (10 nM); solution F was diluted by adding 100 μL of solution F to 900 μL KRH buffer, giving solution H (3 nM); solution G was diluted by adding 100 μL of solution G to 900 μL KRH buffer, giving solution I (1 nM); and solution H was diluted by adding 100 μL of solution H to 900 μL KRH buffer, giving solution J (0.3 nM). 100 μL of each concentration was added to each well with a final volume in each well of 1000 μL (1:10 dilution when added to cells). […] This stock solution was kept refrigerated. To make working solutions: 80 μL of the stock solution was diluted with 3920 μL KRH buffer, giving solution A (200 μM); solution A was diluted by adding 500 μL of solution A to 335 μL KRH buffer, giving solution B (120 μM); solution A was diluted by adding 1000 μL of solution A to 1000 μL KRH buffer, giving solution C (100 μM); solution A was diluted by adding 1000 μL of solution A to 1500 μL KRH buffer, giving solution D (80 μM); solution A was diluted by adding 1000 μL of solution A to 2330 μL KRH buffer, giving solution E (60 μM); solution D was diluted by adding 1000 μL of solution D to 1000 μL KRH buffer, giving solution F (40 μM); solution F was diluted by adding 1000 μL of solution F to 1000 μL KRH buffer, giving solution G (20 μM); solution G was diluted by adding 1000 μL of solution G to 1000 μL KRH buffer, giving solution H (10 μM); and solution H was diluted by adding 1000 μL of solution H to 1000 μL KRH buffer, giving solution I (5 μM). 100 μL of each concentration was added to each well with a final volume in each well of 1000 μL (1:10 dilution when added to cells). Unless indicated otherwise (see, e.g., EXAMPLES 14 & 15), where the EXAMPLES below refer to glyceollin, a mixture of glyceollins I, II, and III, was used. Cell culture and differentiation of murine 3T3-L1 cells is a well-accepted model for study of adipocyte differentiation, glucose uptake, and insulin action. These cells undergo a program of differentiation manifest by large lipid droplet accumulation when stimulated by the appropriate hormonal cocktail. The adipocytes express markers such as leptin and adiponectin, express Glut 4, and respond to insulin stimulation by increasing glucose uptake, similar to primary adipocytes. For these experiments, frozen preadipocytes were purchased from Zenbio (Research Triangle Park, N.C.). They were thawed at 37° C., diluted with Zenbio Preadipocyte medium, and incubated in 24-well plates at 37° C. in a humidified atmosphere containing 95% air and 5% CO2 until confluent. Signals derived from confluency were allowed by incubating for 2 more days. Preadipocyte medium was replaced with Zenbio Differentiation Medium and the cells were incubated for 3 additional days; that medium was replaced with Zenbio Adipocyte […] medium for about 2 weeks when greater than 95% of the cells appeared filled with large lipid droplets. […]

`O=c1c(-c2ccc(O)cc2)coc2cc(O)cc(O)c12` [Genistein, genistein] was tested, and the “fold up-regulation of ABCG1” value [1] was 3 fold.
With `C=C(C)[C@@H]1Cc2cc3c(cc2O1)OC[C@@]1(O)c2ccc(O)cc2O[C@@H]31` [glyceollin III] the “glucose uptake after addition of insulin” value [2] was “further enhanced”, the “glucose uptake in the absence of insulin” value [2] was “can stimulate glucose uptake in the absence of insulin” and the “insulin-mediated glucose uptake after pre-incubation with glyceollins” value [2] was “more effective than glyceollin II”.
With `CC1(C)C=Cc2c(ccc3c2OC[C@@]2(O)c4ccc(O)cc4O[C@@H]32)O1` [glyceollin I] the “glucose uptake after addition of insulin” value [2] was “further enhanced”, the “glucose uptake after 30 minute exposure” value ([2]; 5 μM, cells pre-incubated 24 h with KRH, FIG. 16) was “stimulate glucose uptake better than glyceollins II and III” and the “glucose uptake in the absence of insulin” value [2] was “can stimulate glucose uptake in the absence of insulin”. For the same molecule, the “insulin-mediated glucose uptake after pre-incubation with glyceollins” value [2] was “more effective than glyceollin II”.
In the case of `Oc1ccc2c(c1)OC[C@@]1(O)c3ccc(O)cc3O[C@@H]21` [glycinol, reference compound], the “glucose uptake after 30 minute exposure to glycinol” value ([2]; 1 μM and 0.1 μM, absence of insulin, FIG. 16 columns 7 and 8) is reported as “does not present the same bioactivity as glyceollin” and the “glucose uptake with glycinol” value ([2]; 5 μM glycinol, 24 h pre-incubation, with or without insulin, FIG. 14) is reported as “ineffective at stimulating glucose uptake”.
For insulin [reference compound], the “glucose uptake by insulin alone” value ([2]; 0.2 nM insulin, FIG. 19 column 2) was “stimulation of glucose uptake”.
